Measurements from article PMC3822689 (Journal of Cellular and Molecular Medicine, 2012).

Key:
[1] = system: CBR (central benzodiazepine binding sites, rat cerebral cortex membranes); assay: [3H] Ro 15-1788 binding, central benzodiazepine receptor; conditions: 10 and 100 μM
[2] = target: PBR (peripheral benzodiazepine binding sites, rat kidney mitochondrial membranes) (Rattus norvegicus, UniProt P16257); assay: [3H]-PK 11195 binding, peripheral benzodiazepine receptor; conditions: 10 and 100 μM
Chain of PBR (peripheral benzodiazepine binding sites, rat kidney mitochondrial membranes) (P16257 whole entry): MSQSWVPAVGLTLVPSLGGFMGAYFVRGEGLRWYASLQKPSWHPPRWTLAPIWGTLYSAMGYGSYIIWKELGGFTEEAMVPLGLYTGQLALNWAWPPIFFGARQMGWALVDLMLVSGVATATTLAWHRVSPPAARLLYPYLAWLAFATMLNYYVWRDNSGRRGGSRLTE

Compound	affinity for CBR [1]	affinity for PBR [2]
CN1C(=O)CN=C(c2ccccc2)c2cc(Cl)ccc21 [diazepam]	high affinity	high affinity
CCC(C)N(C)C(=O)c1cc2ccccc2c(-c2ccccc2Cl)n1 (stereo not shown) [PK 11195, 1-(2-chlorophenyl)-N-methyl-N-(1-methylpropyl)-3-isoquinoline carboxamide]		high affinity
CCOC(=O)c1ncn2c1CN(C)C(=O)c1cc(F)ccc1-2 [Ro 15–1788]	high affinity	
